Experimental data: ChEMBL document CHEMBL1201862, “PubChem BioAssay data set” (2004)
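Cells were grown in 96-well plates and exposed to each compound for 48 hours at five concentrations; endpoints were interpolated linearly between bracketing concentrations, or set to the highest concentration if not reached. GI50 marks 50% less growth.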 Active and inactive are the calls of the source. No stated cut-off is given here; in the data, active = GI50 up to about 1.1 µM and inactive = higher.

Tests used:
Assay in all cases: NCI anticancer screen, dose series, 48 h
[1] = tested on: UO-31
[2] = tested on: A498
[3] = tested on: OVCAR-4
[4] = tested on: HOP-62
[5] = tested on: SK-MEL-2
[6] = tested on: ACHN
[7] = tested on: NCI-H23
[8] = tested on: NCI-H226
[9] = tested on: MDA-N
[10] = tested on: HT-29
[11] = tested on: KM12
[12] = tested on: MDA-MB-231
[13] = tested on: Malme-3M
[14] = tested on: SF-295
[15] = tested on: SK-OV-3
[16] = tested on: NCI/ADR-RES
[17] = tested on: HCT-116
[18] = tested on: SK-MEL-28
[19] = tested on: SR
[20] = tested on: COLO 205
[21] = tested on: LOX IMVI
[22] = tested on: MDA-MB-435
[23] = tested on: 786-0
[24] = tested on: UACC-62
[25] = tested on: PC-3
[26] = tested on: DU-145
[27] = tested on: CCRF-CEM
[28] = tested on: A549
[29] = tested on: SNB-75
[30] = tested on: RPMI-8226
[31] = tested on: HL-60
[32] = tested on: T47D
[33] = tested on: SF-268
[34] = tested on: SNB-19
[35] = tested on: SN12C
[36] = tested on: OVCAR-3
[37] = tested on: U-251
[38] = tested on: HCC 2998
[39] = tested on: EKVX
[40] = tested on: IGROV-1
[41] = tested on: Hs-578T
[42] = tested on: SF-539
[43] = tested on: HOP-92
[44] = tested on: HCT-15
[45] = tested on: CAKI-1
[46] = tested on: TK-10
[47] = tested on: OVCAR-5
[48] = tested on: NCI-H522
[49] = tested on: K562
[50] = tested on: RXF 393
[51] = tested on: M14
[52] = tested on: NCI-H460
[53] = tested on: SW-620
[54] = tested on: MOLT-4
[55] = tested on: SK-MEL-5
[56] = tested on: MCF7
[57] = tested on: OVCAR-8
[58] = tested on: BT-549
[59] = tested on: UACC-257

## CNC(=O)N1CN(c2ccccc2)C2(CCN(CCCC3(c4ccc(F)cc4)OCCO3)CC2)C1=O
[1]
  GI50: > 100 µM (inactive)
[2]
  GI50: > 100 µM (inactive)
[3]
  GI50: > 100 µM (inactive)
[4]
  GI50: > 100 µM (inactive)
[5]
  GI50: > 100 µM (inactive)
[6]
  GI50: > 100 µM (inactive)
[7]
  GI50: > 100 µM (inactive)
[8]
  GI50: > 100 µM (inactive)
[9]
  GI50: > 100 µM (inactive)
[10]
  GI50: > 100 µM (inactive)
[11]
  GI50: > 100 µM (inactive)
[12]
  GI50: > 100 µM (inactive)
[13]
  GI50: > 100 µM (inactive)
[14]
  GI50: > 100 µM (inactive)
[15]
  GI50: > 100 µM (inactive)
[16]
  GI50: > 100 µM (inactive)
[17]
  GI50: > 100 µM (inactive)
[18]
  GI50: > 100 µM (inactive)
[19]
  GI50: > 100 µM (inactive)
[20]
  GI50: > 100 µM (inactive)
[21]
  GI50: > 100 µM (inactive)
[22]
  GI50: > 100 µM (inactive)
[23]
  GI50: > 100 µM (inactive)
[24]
  GI50: > 100 µM (inactive)
[25]
  GI50: > 100 µM (inactive)
[26]
  GI50: > 100 µM (inactive)
[27]
  GI50: > 100 µM (inactive)
[28]
  GI50: > 100 µM (inactive)
[29]
  GI50: > 100 µM (inactive)
[30]
  GI50: > 100 µM (inactive)
[31]
  GI50: > 100 µM (inactive)
[32]
  GI50: > 100 µM (inactive)
[33]
  GI50: > 100 µM (inactive)
[34]
  GI50: > 100 µM (inactive)
[35]
  GI50: > 100 µM (inactive)
[36]
  GI50: > 100 µM (inactive)
[37]
  GI50: > 100 µM (inactive)
[38]
  GI50: > 100 µM (inactive)
[39]
  GI50: > 100 µM (inactive)
[40]
  GI50: > 100 µM (inactive)
[41]
  GI50: > 100 µM (inactive)
[42]
  GI50: > 100 µM (inactive)
[43]
  GI50: > 100 µM (inactive)
[44]
  GI50: > 100 µM
[45]
  GI50: > 100 µM (inactive)
[46]
  GI50: > 100 µM (inactive)
[47]
  GI50: > 100 µM (inactive)
[48]
  GI50: > 100 µM (inactive)
[49]
  GI50: > 100 µM (inactive)
[50]
  GI50: > 100 µM (inactive)
[51]
  GI50: > 100 µM (inactive)
[52]
  GI50: > 100 µM (inactive)
[53]
  GI50: > 100 µM (inactive)
[54]
  GI50: > 100 µM (inactive)
[55]
  GI50: > 100 µM (inactive)
[56]
  GI50: > 100 µM (inactive)

## CCOC(=O)c1nc2cc(C(F)(F)F)ccc2nc1Nc1ccc(C(=O)OC)s1
[1]
  GI50: 33.3 µM (inactive)
[2]
  GI50: 40.9 µM (inactive)
[3]
  GI50: 31 µM (inactive)
[4]
  GI50: 33.6 µM (inactive)
[5]
  GI50: 19.4 µM (inactive)
[6]
  GI50: 37.8 µM (inactive)
[7]
  GI50: 30 µM (inactive)
[8]
  GI50: 27 µM (inactive)
[10]
  GI50: 37.1 µM (inactive)
[11]
  GI50: 38.7 µM (inactive)
[12]
  GI50: 23.6 µM (inactive)
[13]
  GI50: 38.5 µM (inactive)
[14]
  GI50: 43 µM (inactive)
[15]
  GI50: 47.3 µM (inactive)
[16]
  GI50: 45.5 µM (inactive)
[17]
  GI50: 35.3 µM (inactive)
[57]
  GI50: 41.2 µM (inactive)
[18]
  GI50: 45 µM (inactive)
[19]
  GI50: 15.5 µM (inactive)
[20]
  GI50: 20.7 µM (inactive)
[21]
  GI50: 30.5 µM (inactive)
[22]
  GI50: 47.2 µM (inactive)
[23]
  GI50: 29.6 µM (inactive)
[24]
  GI50: 23.2 µM (inactive)
[25]
  GI50: 30.7 µM (inactive)
[26]
  GI50: 54.6 µM (inactive)
[27]
  GI50: 30.6 µM (inactive)
[28]
  GI50: 48.6 µM (inactive)
[29]
  GI50: 56.1 µM (inactive)
[30]
  GI50: 30.7 µM (inactive)
[31]
  GI50: 38 µM (inactive)
[32]
  GI50: 25.7 µM (inactive)
[33]
  GI50: 44.9 µM (inactive)
[34]
  GI50: 33.1 µM (inactive)
[36]
  GI50: 19.3 µM (inactive)
[37]
  GI50: 29.6 µM (inactive)
[38]
  GI50: 36.1 µM (inactive)
[39]
  GI50: 45.9 µM (inactive)
[40]
  GI50: 40.9 µM (inactive)
[41]
  GI50: 29.8 µM (inactive)
[43]
  GI50: 17.9 µM (inactive)
[44]
  GI50: 34.2 µM
[45]
  GI50: 31.3 µM (inactive)
[46]
  GI50: 42.8 µM (inactive)
[47]
  GI50: > 100 µM (inactive)
[48]
  GI50: 19.7 µM (inactive)
[49]
  GI50: 31.6 µM (inactive)
[50]
  GI50: 16.8 µM (inactive)
[51]
  GI50: 37.6 µM (inactive)
[52]
  GI50: 33 µM (inactive)
[53]
  GI50: 49.1 µM (inactive)
[58]
  GI50: 25.7 µM (inactive)
[54]
  GI50: 27.1 µM (inactive)
[55]
  GI50: 40.5 µM (inactive)
[59]
  GI50: 36.5 µM (inactive)

## COC(=O)c1ccccc1CC1Cc2c(C)ccc(C)c2C1=O (configuration not stated)
[1]
  GI50: 25.8 µM (inactive)
[2]
  GI50: 25.8 µM (inactive)
[3]
  GI50: 25.9 µM (inactive)
[4]
  GI50: 60.1 µM (inactive)
[5]
  GI50: 17.9 µM (inactive)
[6]
  GI50: 33.8 µM (inactive)
[7]
  GI50: 15.4 µM (inactive)
[8]
  GI50: 38.9 µM (inactive)
[10]
  GI50: 14.9 µM (inactive)
[11]
  GI50: 23.6 µM (inactive)
[12]
  GI50: 16 µM (inactive)
[13]
  GI50: 22.4 µM (inactive)
[14]
  GI50: 28.7 µM (inactive)
[15]
  GI50: 38.6 µM (inactive)
[16]
  GI50: 18.3 µM (inactive)
[17]
  GI50: 16.5 µM (inactive)
[57]
  GI50: 42.1 µM (inactive)
[18]
  GI50: 48 µM (inactive)
[20]
  GI50: 19.1 µM (inactive)
[21]
  GI50: 16.5 µM (inactive)
[22]
  GI50: 23.1 µM (inactive)
[23]
  GI50: 36.3 µM (inactive)
[24]
  GI50: 28.7 µM (inactive)
[25]
  GI50: 34.8 µM (inactive)
[26]
  GI50: 50.5 µM (inactive)
[27]
  GI50: 22.2 µM (inactive)
[28]
  GI50: 40.2 µM (inactive)
[29]
  GI50: 36.1 µM (inactive)
[31]
  GI50: 23.3 µM (inactive)
[32]
  GI50: 21.4 µM (inactive)
[33]
  GI50: 29.6 µM (inactive)
[34]
  GI50: 37.9 µM (inactive)
[35]
  GI50: 45.3 µM (inactive)
[36]
  GI50: 34.4 µM (inactive)
[37]
  GI50: 33.8 µM (inactive)
[38]
  GI50: 36.9 µM (inactive)
[39]
  GI50: 13.5 µM (inactive)
[40]
  GI50: 32 µM (inactive)
[41]
  GI50: 33.3 µM (inactive)
[42]
  GI50: 51.2 µM (inactive)
[43]
  GI50: 17.2 µM (inactive)
[44]
  GI50: 24.6 µM
[45]
  GI50: 34.5 µM (inactive)
[46]
  GI50: 20.5 µM (inactive)
[47]
  GI50: 49.1 µM (inactive)
[48]
  GI50: 21.6 µM (inactive)
[49]
  GI50: 33.5 µM (inactive)
[50]
  GI50: 21.4 µM (inactive)
[51]
  GI50: 34.8 µM (inactive)
[52]
  GI50: 30.2 µM (inactive)
[53]
  GI50: 35.6 µM (inactive)
[58]
  GI50: 34.5 µM (inactive)
[54]
  GI50: 19.6 µM (inactive)
[55]
  GI50: 17.8 µM (inactive)
[59]
  GI50: 16.2 µM (inactive)
[56]
  GI50: 11.2 µM (inactive)
